# From US20160303095A1, “METHODS OF TREATING HEPATITIS B VIRUS” (Gilead Sciences, Inc., priority 2015, published 2016)
# Where two headings read alike, the source gives them in different places.
# Tests used:
# [1] = Alamar Blue cell viability assay; assay type: cell-based; settings: human
# Description: Alamar Blue cell viability reagent (Cat#DAL1100 Life Technologies, Chicago, Ill.) was diluted 1 to 10 in Maintenance Media and added to the cells. Cells were incubated for 4 h at 37° C. and the fluorescence signal, which is proportional to the number of live cells, was read using a fluorimeter with excitation/emission spectra set at 560/590 nm, respectively. Data were converted into percentages of the untreated control and non-linear regression was performed to calculate CC50 values.
# PHH were plated in collagen coated tissue culture plates in Plating Media and after 4-hour incubation at 37° C., cells were switched to Maintenance Media. On the next day, the cells were infected with 500 genome equivalents per cell of Genotype-A clinical isolate 21P (ProteoGenex, Culver City, Calif.) in 100 μl Maintenance Media supplemented with 4% PEG 8000 (Cat#V3011 Promega, Madison, Wis.). After an overnight incubation the inoculum was removed and the cells were washed three times with William's Media E and maintained in Maintenance Media. […] Following the transfection, the cells were incubated at 37° C. in a humidified incubator and media was changed every 3-4 days. The assay was terminated on day 14 post infection and cell viability was assessed by Alamar Blue. The collected medium was used for determination of HBsAg and HBeAg levels by MSD ELISA while cells were processed for determination of HBV RNA using qPCR.
# [2] = system: HBV; test: PHH screening protocol: HBsAg and HBeAg levels by MSD ELISA; assay type: cell-based, Hepatitis B Virus; settings: Hepatitis B virus
# Description: HBV antiviral activity was assessed in primary human hepatocytes (PHH) in a 96-well format. PHH were (Life Technologies, Chicago, 11) plated on collagen coated tissue culture plates using Plating Media containing William's Medium E supplemented with 1% Penicillin/Streptomycin, 4 μg/mL human recombinant insulin, 2 mM glutamax, 15 mM Hepes, 1 μM dexamethasone and 5% fetal bovine serum (Life Technologies, Cat#A12176-01 Life Technologies, Chicago, Ill.). After a 4-hour incubation at 37° C., cells were switched to Maintenance Media (Cat#CM4000-A15564 Life Technologies, Chicago, Ill.) containing William's Medium E supplemented with 0.5% Penicillin/Streptomycin, 6.25 μg/mL human recombinant insulin, 6.25 μg/mL human transferrin, 6.25 ng/mL selenous acid, 1.25 mg/mL bovine serum albumin, 5.35 μg/mL linoleic acid, 2 mM glutamax, 15 mM Hepes, 0.1 μM dexamethasone, 2% fetal bovine serum, and 2% DMSO (Cat#D2650 Sigma, St. Louis, Mo.). On the next day, cells were infected with approximately 500 genome equivalent of selected HBV clinical isolates (21P (GTA), 32P (GTA), 91P (GTA), AD38 (GTD), 65P (GTD) or 30P (GTE); ProteoGenex, Culver City, Calif.) per cell in Maintenance Media supplemented with 4% PEG 8000 (Cat#V3011 Promega, Madison, Wis.). After 24 hour incubation cells were washed three times with William's Medium E and fed with fresh Maintenance Media. Small molecule inhibitors targeting KDMs were serially diluted in Maintenance Media and added to cells at 3 days post infection (p.i.). Media with compounds was replenished every 2-3 days. Media collected on various days was used for determination of HBsAg and HBeAg levels by MSD ELISA, and HBV RNA by qPCR. All data were converted into percentages of the untreated control and non-linear regression was performed to calculate EC50 or CC50 values.
# [3] = system: HBV; test: Determination of HBV viral RNA by RT-qPCR in PHH; assay type: cell-based; settings: Hepatitis B virus, read-out: HBV RNA EC50
# Description: Following the Alamar Blue measurement, media was removed and total RNA from the cells was isolated using the RNeasy 96 Kit (Cat#74182 Qiagen, Venlo, Netherlands). […] GAPDH mRNA levels were also measured by RT-qPCR to control for differences in cell number, toxicity, and RNA purification efficiency (Cat#4390849 Life Technologies, Chicago Ill.). HBV mRNA Ct values were normalized using their cognate GAPDH mRNA Ct values by the delta-delta-Ct calculation and then expressed as a percentage of the non-targeting scrambled control.
# [4] = target: T1, KDM4E (Homo sapiens, UniProt B2RXH2); test: Biochemical KDM inhibition assay (LANCE), KDM4E; settings: read-out: Biochemical IC50 KDM 4E
# T1 construct: host or cells: Sf9 cells
# T1 sequence (B2RXH2 1-506): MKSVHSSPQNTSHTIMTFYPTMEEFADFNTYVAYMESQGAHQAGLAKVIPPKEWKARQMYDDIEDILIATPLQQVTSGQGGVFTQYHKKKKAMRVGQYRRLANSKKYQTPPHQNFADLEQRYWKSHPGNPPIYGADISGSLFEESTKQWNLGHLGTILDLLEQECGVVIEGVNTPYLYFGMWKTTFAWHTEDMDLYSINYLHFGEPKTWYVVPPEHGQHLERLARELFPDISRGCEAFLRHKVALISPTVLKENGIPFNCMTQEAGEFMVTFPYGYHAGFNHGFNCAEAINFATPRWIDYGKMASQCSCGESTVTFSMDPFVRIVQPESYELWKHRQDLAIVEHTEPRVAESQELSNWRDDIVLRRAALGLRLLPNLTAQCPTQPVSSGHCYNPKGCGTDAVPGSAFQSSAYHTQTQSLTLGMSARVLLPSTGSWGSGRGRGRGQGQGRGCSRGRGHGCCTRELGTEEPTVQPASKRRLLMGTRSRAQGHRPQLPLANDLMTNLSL
# [5] = target: T2, KDM5D (Homo sapiens, UniProt Q9BY66); test: Biochemical KDM inhibition assay (LANCE), KDM5D; settings: read-out: Biochemical IC50 KDM 5D
# T2 construct: host or cells: Sf9 cells
# T2 sequence (Q9BY66 whole entry): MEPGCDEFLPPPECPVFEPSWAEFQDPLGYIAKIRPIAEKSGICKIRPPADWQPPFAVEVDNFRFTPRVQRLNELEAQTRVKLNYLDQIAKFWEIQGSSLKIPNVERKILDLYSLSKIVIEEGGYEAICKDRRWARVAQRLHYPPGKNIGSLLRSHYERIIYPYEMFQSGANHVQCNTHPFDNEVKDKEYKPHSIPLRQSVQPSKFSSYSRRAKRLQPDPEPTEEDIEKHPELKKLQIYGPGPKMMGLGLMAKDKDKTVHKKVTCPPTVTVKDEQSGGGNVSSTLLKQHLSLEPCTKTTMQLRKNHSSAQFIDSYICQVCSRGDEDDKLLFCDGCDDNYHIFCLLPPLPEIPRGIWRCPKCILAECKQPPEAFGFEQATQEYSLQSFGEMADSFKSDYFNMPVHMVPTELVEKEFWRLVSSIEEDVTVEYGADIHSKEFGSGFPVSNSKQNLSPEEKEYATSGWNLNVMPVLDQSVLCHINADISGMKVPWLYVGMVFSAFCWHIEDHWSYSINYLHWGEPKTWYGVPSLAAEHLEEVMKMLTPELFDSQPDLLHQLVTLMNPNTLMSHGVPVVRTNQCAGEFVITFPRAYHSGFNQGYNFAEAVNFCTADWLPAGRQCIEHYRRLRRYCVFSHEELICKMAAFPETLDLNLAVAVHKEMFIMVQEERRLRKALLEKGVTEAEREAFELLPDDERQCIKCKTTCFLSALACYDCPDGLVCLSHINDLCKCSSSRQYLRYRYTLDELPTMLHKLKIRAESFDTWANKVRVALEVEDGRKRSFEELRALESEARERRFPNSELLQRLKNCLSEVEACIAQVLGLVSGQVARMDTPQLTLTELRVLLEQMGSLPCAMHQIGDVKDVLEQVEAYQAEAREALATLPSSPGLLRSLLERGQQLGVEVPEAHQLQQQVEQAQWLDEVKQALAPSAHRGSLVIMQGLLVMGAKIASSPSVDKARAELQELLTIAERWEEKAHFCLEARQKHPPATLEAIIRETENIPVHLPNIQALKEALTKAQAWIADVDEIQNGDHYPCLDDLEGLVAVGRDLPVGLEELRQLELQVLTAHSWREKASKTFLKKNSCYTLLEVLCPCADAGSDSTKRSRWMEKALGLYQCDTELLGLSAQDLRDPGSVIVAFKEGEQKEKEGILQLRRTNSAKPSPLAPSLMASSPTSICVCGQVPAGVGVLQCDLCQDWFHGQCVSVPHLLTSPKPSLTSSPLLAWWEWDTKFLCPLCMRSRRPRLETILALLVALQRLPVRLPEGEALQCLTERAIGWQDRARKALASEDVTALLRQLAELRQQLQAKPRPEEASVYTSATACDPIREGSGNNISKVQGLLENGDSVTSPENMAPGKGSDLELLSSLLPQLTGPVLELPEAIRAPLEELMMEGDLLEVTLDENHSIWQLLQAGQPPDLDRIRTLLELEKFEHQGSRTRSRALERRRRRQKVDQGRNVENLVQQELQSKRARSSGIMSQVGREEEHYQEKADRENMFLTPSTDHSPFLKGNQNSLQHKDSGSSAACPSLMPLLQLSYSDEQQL
# Description: (§1) Representative compounds were characterized for their inhibition of KDM5 using biotinylated histone substrates. Inhibition was measured in vitro (CEREP Poitier, Le Bois l'Evêque, France) following experimental conditions described in Table 2. Briefly, the test compound, reference compound or water (control) was mixed with about 2-20 ng of recombinant, Human enzymes expressed in Sf9 cells in a buffer containing 45 mM Hepes/Tris (pH 7), 5 μM FAS, 100 μM ascorbic acid, 10 μM 2-oxoglutarate, 0.01% Tween 20 and 0.01% BSA. Thereafter, the reaction was initiated by adding the biotin-labeled substrate, and the mixture was incubated for 10-30 min at room temperature. For basal control measurements, the enzyme was omitted from the reaction mixture. Following incubation the reaction was stopped by adding 1 mM EDTA. After 5 min, the anti-methyl histone antibody labeled with europium chelate and the Ulight streptavidine (Perkin Elmer Waltham, Mass.) were added. After 60 min more, the fluorescence transfer was measured at λex=320 nm and λem=620 and λem=665 nm using a microplate reader (Envision, Perkin Elmer) (LANCE). The enzyme activity was determined by dividing the signal measured at λem=665 nm by that measured at 620 nm (ratio).
# [6] = target: KDM5A (Homo sapiens, UniProt P29375); test: Biochemical KDM inhibition assay (LANCE), KDM5A; settings: read-out: Biochemical IC50 KDM 5A
# Chain of KDM5A (P29375 whole entry): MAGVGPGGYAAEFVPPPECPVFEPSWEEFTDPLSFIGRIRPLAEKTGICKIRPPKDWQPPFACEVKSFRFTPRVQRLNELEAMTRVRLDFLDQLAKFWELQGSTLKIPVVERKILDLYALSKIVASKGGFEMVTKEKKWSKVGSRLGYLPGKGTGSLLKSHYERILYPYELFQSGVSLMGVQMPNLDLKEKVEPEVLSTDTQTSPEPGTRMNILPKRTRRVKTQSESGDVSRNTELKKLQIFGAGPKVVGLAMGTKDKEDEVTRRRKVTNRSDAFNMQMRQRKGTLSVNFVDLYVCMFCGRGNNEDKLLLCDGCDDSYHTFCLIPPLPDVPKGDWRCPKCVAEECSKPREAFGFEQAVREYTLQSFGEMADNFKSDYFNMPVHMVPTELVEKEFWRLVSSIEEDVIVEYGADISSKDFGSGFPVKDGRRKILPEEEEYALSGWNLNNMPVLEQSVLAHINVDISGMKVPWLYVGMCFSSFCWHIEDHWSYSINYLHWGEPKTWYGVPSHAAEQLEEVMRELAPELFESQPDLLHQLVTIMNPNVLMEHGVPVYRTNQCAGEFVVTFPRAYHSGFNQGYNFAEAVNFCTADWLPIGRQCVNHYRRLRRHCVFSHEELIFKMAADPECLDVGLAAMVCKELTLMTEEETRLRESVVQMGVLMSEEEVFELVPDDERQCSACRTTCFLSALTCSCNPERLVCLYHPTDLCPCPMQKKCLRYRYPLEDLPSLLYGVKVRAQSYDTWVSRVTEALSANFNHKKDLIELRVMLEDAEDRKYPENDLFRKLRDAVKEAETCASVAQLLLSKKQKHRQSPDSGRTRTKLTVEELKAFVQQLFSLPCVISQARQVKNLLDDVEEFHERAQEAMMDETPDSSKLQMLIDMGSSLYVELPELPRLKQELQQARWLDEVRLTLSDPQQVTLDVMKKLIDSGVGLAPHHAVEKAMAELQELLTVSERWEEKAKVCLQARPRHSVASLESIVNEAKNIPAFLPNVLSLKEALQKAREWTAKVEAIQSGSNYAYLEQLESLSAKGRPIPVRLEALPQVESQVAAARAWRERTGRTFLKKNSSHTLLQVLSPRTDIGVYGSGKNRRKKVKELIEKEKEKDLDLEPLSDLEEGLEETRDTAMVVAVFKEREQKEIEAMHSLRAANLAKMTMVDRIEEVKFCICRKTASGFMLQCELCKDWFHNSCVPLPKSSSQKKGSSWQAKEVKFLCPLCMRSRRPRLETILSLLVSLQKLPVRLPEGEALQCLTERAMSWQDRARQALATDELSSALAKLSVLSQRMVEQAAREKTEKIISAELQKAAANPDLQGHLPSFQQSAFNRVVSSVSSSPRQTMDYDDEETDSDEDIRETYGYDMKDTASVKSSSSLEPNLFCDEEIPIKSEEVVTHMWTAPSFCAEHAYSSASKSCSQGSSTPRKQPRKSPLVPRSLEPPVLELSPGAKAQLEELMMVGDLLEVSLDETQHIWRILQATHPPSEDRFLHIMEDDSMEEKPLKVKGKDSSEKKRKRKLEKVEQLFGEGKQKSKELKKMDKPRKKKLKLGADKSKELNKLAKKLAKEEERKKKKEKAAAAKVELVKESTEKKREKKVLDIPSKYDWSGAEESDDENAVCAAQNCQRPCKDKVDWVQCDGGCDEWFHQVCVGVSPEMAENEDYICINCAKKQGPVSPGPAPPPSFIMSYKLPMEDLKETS
# Description: as §1
# [7] = target: T3, KDM5B (Homo sapiens, UniProt Q9UGL1); test: Biochemical KDM inhibition assay (LANCE), KDM5B; settings: read-out: Biochemical IC50 KDM 5B
# T3 construct: host or cells: Sf9 cells
# T3 sequence (Q9UGL1 whole entry): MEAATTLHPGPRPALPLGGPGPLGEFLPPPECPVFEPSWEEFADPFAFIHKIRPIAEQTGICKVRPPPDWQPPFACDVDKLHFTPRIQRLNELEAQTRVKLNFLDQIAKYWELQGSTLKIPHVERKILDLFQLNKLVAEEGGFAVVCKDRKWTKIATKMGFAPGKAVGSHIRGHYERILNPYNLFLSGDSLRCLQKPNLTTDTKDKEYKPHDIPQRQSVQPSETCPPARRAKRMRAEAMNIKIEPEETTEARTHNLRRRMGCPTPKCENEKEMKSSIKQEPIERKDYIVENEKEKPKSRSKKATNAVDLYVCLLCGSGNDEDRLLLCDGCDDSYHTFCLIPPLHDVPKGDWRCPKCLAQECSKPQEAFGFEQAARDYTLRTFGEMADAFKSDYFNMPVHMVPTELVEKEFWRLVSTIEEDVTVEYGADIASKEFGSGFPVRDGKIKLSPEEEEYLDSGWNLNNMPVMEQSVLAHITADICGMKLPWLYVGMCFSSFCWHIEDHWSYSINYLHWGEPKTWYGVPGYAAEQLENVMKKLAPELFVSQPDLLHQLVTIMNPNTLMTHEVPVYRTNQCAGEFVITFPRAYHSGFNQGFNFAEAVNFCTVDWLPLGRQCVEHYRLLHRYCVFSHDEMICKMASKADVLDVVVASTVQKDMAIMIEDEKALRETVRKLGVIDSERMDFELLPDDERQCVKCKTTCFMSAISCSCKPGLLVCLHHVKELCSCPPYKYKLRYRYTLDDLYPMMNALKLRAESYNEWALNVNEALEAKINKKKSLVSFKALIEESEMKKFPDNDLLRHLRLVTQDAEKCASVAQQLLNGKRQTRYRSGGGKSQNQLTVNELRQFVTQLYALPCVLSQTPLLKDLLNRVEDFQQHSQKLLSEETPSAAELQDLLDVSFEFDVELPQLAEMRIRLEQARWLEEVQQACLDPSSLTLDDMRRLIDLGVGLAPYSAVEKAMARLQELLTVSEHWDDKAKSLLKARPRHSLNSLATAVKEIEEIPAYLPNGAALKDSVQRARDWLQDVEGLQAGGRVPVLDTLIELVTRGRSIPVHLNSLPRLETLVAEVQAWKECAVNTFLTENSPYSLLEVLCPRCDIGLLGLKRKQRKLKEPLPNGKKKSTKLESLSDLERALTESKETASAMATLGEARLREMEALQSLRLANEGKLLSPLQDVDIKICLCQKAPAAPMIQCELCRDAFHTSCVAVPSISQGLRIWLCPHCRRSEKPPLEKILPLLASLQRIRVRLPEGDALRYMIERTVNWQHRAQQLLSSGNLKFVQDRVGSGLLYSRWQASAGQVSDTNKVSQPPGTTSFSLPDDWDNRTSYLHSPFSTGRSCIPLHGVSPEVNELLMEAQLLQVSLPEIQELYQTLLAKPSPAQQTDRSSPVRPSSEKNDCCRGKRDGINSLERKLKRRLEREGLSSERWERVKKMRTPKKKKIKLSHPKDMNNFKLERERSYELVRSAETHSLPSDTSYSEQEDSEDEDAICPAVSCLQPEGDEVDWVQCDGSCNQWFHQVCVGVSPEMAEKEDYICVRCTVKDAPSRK
# Description: as §1
# [8] = system: H3K4me3 mark; test: Western blot detection of H3K4me3 in HBV-infected PHHs; assay type: cell-based, human; settings: for IC50: Homo sapiens
# Description: One million primary human hepatocytes (PHH) cells from three different donors were plated in 6 well collagen coated tissue culture plates in 2.5 ml Plating Media containing William's Medium E supplemented with 1% Penicillin/Streptomycin, 4 μg/mL human recombinant insulin, 2 mM glutamax, 15 mM Hepes, 1 μM dexamethasone and 5% fetal bovine serum (Life Technologies, Cat#A12176-01 Life Technologies, Chicago, Ill.) and incubated for 4-hours at 37° C. Following this incubation the media was changed to Maintenance Media (Cat#CM4000-A15564 Life Technologies, Chicago, Ill.) containing William's Medium E supplemented with 0.5% Penicillin/Streptomycin, 6.25 μg/mL human recombinant insulin, 6.25 μg/mL human transferrin, 6.25 ng/mL selenous acid, 1.25 mg/mL bovine serum albumin, 5.35 μg/mL linoleic acid, 2 mM glutamax, 15 mM Hepes, 0.1 μM dexamethasone, 2% fetal bovine serum, and 2% DMSO (Cat#D2650 Sigma, St. Louis, Mo.). The next day, cells were infected with approximately 500 genome equivalents of HBV clinical isolates 21P (GTA) or AD38 (GTD) per cell in Maintenance Media supplemented with 4% PEG 8000. Small molecule inhibitors targeting KDMs were serially diluted in Maintenance Media and added to cells at 3 days post infection (p.i.). Media with compounds was replenished every 2-3 days. Cells were harvested on day 14 p.i. by scraping the monolayer into ice-cold PBS supplemented with 5 mM Sodium Butyrate and concentrated by centrifugation at 1000×g for 5 minutes at 4° C. The cell pellets were washed twice by re-suspension in PBS and concentrated by centrifugation. The cells were lysed by suspension in Triton Extraction Buffer (TEB: PBS containing 0.5% Triton X 100 (v/v), 2 mM phenylmethylsulfonyl fluoride (PMSF), 0.02% (w/v) NaN3) at a cell density of 10^7 cells per ml and incubated on ice for 10 minutes with gentle stirring. Following centrifugation at 500 g for 10 minutes at 4° C., the supernatants were removed and the pellets were washed in 5×10^7 cells per ml TEB buffer and centrifuged as before. The pellets were re-suspended in 0.2N HCl at a cell density of 4×10^7 cells per ml and the histones were acid extracted overnight at 4° C. Samples were centrifuged at 500 g for 10 minutes at 4° C., the supematants were removed and protein content was determined using the Bradford assay. Histones were separated on a 4-20% gradient SDS gel (Mini protean TGX precast gels from BioRad), and blotted to a Hybond C-extra nitrocellulose membrane (Amersham Biosciences, RPN303E). H3K4me3 and total H3 were detected with a mixture of 1° antibodies (Cat#05-745R Millipore and Cat#14269S Cell Signaling) diluted 1:1000 in 5% skimmed milk powder in PBS containing 0.1% Tween. The western blot was washed 3 times in PBS containing 0.1% tween and incubated with 2° antibodies (Donkey anti-Mouse IRDye at 680LT Cat#926-68022 Licor Odyssey; Donkey anti-Rabbit IRDye at 800CW Cat#96-32213; Licor Odyssey) diluted 1:10000 in 5% skimmed milk powder in PBS containing 0.1% tween 20 for 1 h. Detection of infrared fluorescence was performed on Infrared Fluorescence Imaging System LI-COR. Concentration dependence of H3K4me3/H3 signal was used to calculate IC50 value for induction of H3K4 trimethylation.
# [9] = primary human hepatocytes (PHH), read-out: PHH CC50
# [10] = read-out: HBeAg EC50, HBV-infected PHH
# [11] = read-out: HBsAg EC50, HBV-infected PHH
SMILES,"CC50 [1, 9]","EC50 [2, 10]","EC50 [2, 11]",CC50 [1],also measured
"O=C(O)CCNc1cc(N2CCc3ccccc3CC2)nc(-c2ccccn2)n1 [Example 1, GSK-J1, reference compound]",≥ 100 µM,8.04 µM,22.4 µM,–,–
"O=C(O)c1ccc(O)c2ncccc12 [Example 2, 8-HQ-5-COOH, reference compound]",–,32 µM,45.8 µM,–,–
"CCOC(=O)CCNc1cc(N2CCc3ccccc3CC2)nc(-c2ccccn2)n1 [Example 3, GSK-J4, reference compound]",≥ 100 µM,3.43 µM,28.7 µM,–,–
"Clc1ccc(N/N=C(\c2ccccc2)c2ccccn2)nc1 [Example 4, JIB-04, reference compound]",–,0.9 µM,0.9 µM,≥ 100 µM,EC50 ([3]; HBV-infected PHH): 4.6 µM
"CN(C)CCCNC(=O)c1ccc(-c2cc(O)c3ncccc3c2)cc1 [Example 5, ML-324, reference compound]",69.4 µM,34.5 µM,38.4 µM,–,–
"N[C@H]1C[C@@H]1c1ccc(-c2cccc(O)c2)cc1 [Example 6, OG-L002, reference compound]",–,46.7 µM,38.3 µM,≥ 100 µM,EC50 [3]: 31.6 µM
"NC1CC1c1cccc(OCC[C@H](NC(=O)c2ccccc2)C(=O)NCc2ccccc2)c1 (some centres unmarked) [Example 10, NCL-1, reference compound]",–,19 µM,19.4 µM,8.12 µM,–
O=C(O)c1ccnc(-n2ncc(CCO)c2OCc2ccc(F)cc2)c1 [Example 12],–,50 µM,50 µM,≥ 50 µM,IC50 [4]: 9.1 µM; IC50 [5]: 6.4 µM; IC50 [6]: 1.6 µM; IC50 [7]: 2.7 µM
CCN(CCN(C)C)C(=O)CNCc1cc(C=O)ccn1 [Example 15],–,0.053 µM,0.041 µM,≥ 50 µM,"IC50 ([8]; read-out: IC50 (concentration causing a 50% increase in the H3K4me3 mark), Virus 21P (GTA), PHH 8130): 0.05 µM; IC50 ([8]; read-out: IC50 (concentration causing a 50% increase in the H3K4me3 mark), Virus 21P (GTA), PHH 8181): 0.03 µM; IC50 ([8]; read-out: IC50 (concentration causing a 50% increase in the H3K4me3 mark), Virus AD38 (GTD), PHH 4239): 0.02 µM; IC50 ([8]; read-out: IC50 (concentration causing a 50% increase in the H3K4me3 mark), Virus AD38 (GTD), PHH 8130): 0.05 µM; IC50 ([8]; read-out: IC50 (concentration causing a 50% increase in the H3K4me3 mark), Virus AD38 (GTD), PHH 8181): 0.04 µM; chromatin H3K4Me3 mark ([8]; PHH from three different donors): increase in the chromatin H3K4Me3 mark in a dose-dependent manner"
CCN(CCN(C)C)C(=O)CNCc1cc(/C=N/CCO)ccn1 [Example 16],–,0.648 µM,0.257 µM,≥ 50 µM,–
